Laboratory results from ChEMBL document CHEMBL1201862, “PubChem BioAssay data set” (2004).
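Each compound was tested at five concentrations against cells in 96-well plates for 48 hours. GI50 = concentration required for 50% inhibition of growth.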 Calls of active or inactive are those of the source. No stated cut-off is given here; in the data, active = GI50 up to about 1.1 µM and inactive = higher.

What was measured:
Test in all cases: growth of human tumour cells (NCI), 48 h
[1] = system: 786-0
[2] = system: A549
[3] = system: ACHN
[4] = system: BT-549
[5] = system: CAKI-1
[6] = system: CCRF-CEM
[7] = system: COLO 205
[8] = system: DU-145
[9] = system: EKVX
[10] = system: HCC 2998
[11] = system: HCT-116
[12] = system: HCT-15
[13] = system: HL-60
[14] = system: HOP-92
[15] = system: HT-29
[16] = system: Hs-578T
[17] = system: IGROV-1
[18] = system: K562
[19] = system: KM12
[20] = system: LOX IMVI
[21] = system: M14
[22] = system: MCF7
[23] = system: MDA-MB-231
[24] = system: MDA-MB-435
[25] = system: MDA-N
[26] = system: MOLT-4
[27] = system: Malme-3M
[28] = system: NCI-H226
[29] = system: NCI-H23
[30] = system: NCI-H460
[31] = system: NCI-H522
[32] = system: NCI/ADR-RES
[33] = system: OVCAR-3
[34] = system: OVCAR-4
[35] = system: OVCAR-5
[36] = system: OVCAR-8
[37] = system: PC-3
[38] = system: RPMI-8226
[39] = system: RXF 393
[40] = system: SF-295
[41] = system: SK-MEL-28
[42] = system: SK-MEL-2
[43] = system: SK-MEL-5
[44] = system: SK-OV-3
[45] = system: SNB-19
[46] = system: SNB-75
[47] = system: SR
[48] = system: SW-620
[49] = system: T47D
[50] = system: TK-10
[51] = system: UACC-257
[52] = system: UACC-62
[53] = system: UO-31
[54] = system: HOP-62
[55] = system: SF-268
[56] = system: SF-539
[57] = system: SN12C
[58] = system: U-251

For `CC1=CC(O)CC(C)(C)C1/C=C/C(C)=C/C=C/C(C)=C/C=C/C=C(C)/C=C/C=C(C)/C=C/C1=C(C)CC(O)CC1(C)C` (stereo not given), the GI50 [1] was 19.1 µM (inactive), the GI50 [2] was 35.6 µM (inactive) and the GI50 [3] was 16.6 µM (inactive). The GI50 [4] was 17.8 µM (inactive), the GI50 [5] was 23.2 µM (inactive) and the GI50 [6] was 26.2 µM (inactive). For the same compound, the GI50 [7] was 20.7 µM (inactive), the GI50 [8] was 7.43 µM (inactive) and the GI50 [9] was 79.3 µM (inactive). For the same compound, the GI50 [10] was 83.9 µM (inactive), the GI50 [11] was 15.7 µM (inactive) and the GI50 [12] was 19.7 µM. For the same compound, the GI50 [13] was 51.6 µM (inactive), the GI50 [14] was 21.4 µM (inactive) and the GI50 [15] was 14.9 µM (inactive). The GI50 [16] was 80.5 µM (inactive), the GI50 [17] was 26.5 µM (inactive) and the GI50 [18] was 38.3 µM (inactive). For the same compound, the GI50 [19] was 38.6 µM (inactive), the GI50 [20] was 56.1 µM (inactive) and the GI50 [21] was 13.8 µM (inactive). For the same compound, the GI50 [22] was 27.7 µM (inactive), the GI50 [23] was 13.5 µM (inactive) and the GI50 [24] was 17.5 µM (inactive). The GI50 [25] was 18.7 µM (inactive), the GI50 [26] was 20.9 µM (inactive) and the GI50 [27] was 15.6 µM (inactive). The GI50 [28] was 21.4 µM (inactive), the GI50 [29] was 24.7 µM (inactive) and the GI50 [30] was 32.6 µM (inactive). For the same compound, the GI50 [31] was 15.2 µM (inactive), the GI50 [32] was 24.5 µM (inactive) and the GI50 [33] was 17.3 µM (inactive). The GI50 [34] was 28.8 µM (inactive), the GI50 [35] was 34.8 µM (inactive) and the GI50 [36] was 19.7 µM (inactive). For the same compound, the GI50 [37] was 23.2 µM (inactive), the GI50 [38] was 28.2 µM (inactive) and the GI50 [39] was 18.5 µM (inactive). For the same compound, the GI50 [40] was 23.9 µM (inactive), the GI50 [41] was 17.5 µM (inactive) and the GI50 [42] was 25 µM (inactive). For the same compound, the GI50 [43] was 16.6 µM (inactive), the GI50 [44] was 40.8 µM (inactive) and the GI50 [45] was 53.2 µM (inactive). The GI50 [46] was 26.5 µM (inactive), the GI50 [47] was 15.7 µM (inactive) and the GI50 [48] was 19.1 µM (inactive). For the same compound, the GI50 [49] was 20 µM (inactive), the GI50 [50] was 57.8 µM (inactive) and the GI50 [51] was 24.9 µM (inactive). For the same compound, the GI50 [52] was 15 µM (inactive) and the GI50 [53] was 34 µM (inactive).

For `COC(=O)c1ccc(/C=C2\Oc3cc(O)ccc3C2=O)cc1`, the GI50 [1] was > 100 µM (inactive), the GI50 [2] was 77.3 µM (inactive) and the GI50 [3] was 31.7 µM (inactive). The GI50 [4] was 39.8 µM (inactive), the GI50 [5] was 68.5 µM (inactive) and the GI50 [6] was 38.2 µM (inactive). The GI50 [7] was > 100 µM (inactive), the GI50 [8] was > 100 µM (inactive) and the GI50 [9] was 49.2 µM (inactive). For the same compound, the GI50 [10] was > 100 µM (inactive), the GI50 [11] was 63.5 µM (inactive) and the GI50 [12] was 53.3 µM. The GI50 [13] was 44.2 µM (inactive), the GI50 [54] was > 100 µM (inactive) and the GI50 [16] was 52.4 µM (inactive). The GI50 [17] was > 100 µM (inactive), the GI50 [18] was 47.8 µM (inactive) and the GI50 [19] was 49.3 µM (inactive). For the same compound, the GI50 [21] was 83.8 µM (inactive), the GI50 [22] was 38.5 µM (inactive) and the GI50 [23] was 65.9 µM (inactive). For the same compound, the GI50 [24] was > 100 µM (inactive), the GI50 [25] was 67.3 µM (inactive) and the GI50 [26] was 43.7 µM (inactive). The GI50 [28] was 55.3 µM (inactive), the GI50 [29] was 42.3 µM (inactive) and the GI50 [30] was > 100 µM (inactive). The GI50 [31] was 20 µM (inactive), the GI50 [32] was > 100 µM (inactive) and the GI50 [33] was 53.3 µM (inactive). For the same compound, the GI50 [34] was 62.8 µM (inactive), the GI50 [36] was 61.5 µM (inactive) and the GI50 [37] was 91.4 µM (inactive). The GI50 [38] was 29.4 µM (inactive), the GI50 [39] was 27.9 µM (inactive) and the GI50 [55] was 66.1 µM (inactive). For the same compound, the GI50 [40] was 36.8 µM (inactive), the GI50 [56] was > 100 µM (inactive) and the GI50 [41] was 72.8 µM (inactive). The GI50 [43] was 67 µM (inactive), the GI50 [44] was > 100 µM (inactive) and the GI50 [57] was 53.8 µM (inactive). For the same compound, the GI50 [45] was 69.8 µM (inactive), the GI50 [46] was 39.4 µM (inactive) and the GI50 [47] was 42.3 µM (inactive). The GI50 [48] was 78.2 µM (inactive), the GI50 [49] was 54.3 µM (inactive) and the GI50 [50] was 53 µM (inactive). The GI50 [58] was 48.8 µM (inactive), the GI50 [51] was > 100 µM (inactive) and the GI50 [52] was > 100 µM (inactive). For the same compound, the GI50 [53] was 46.3 µM (inactive).
